Here are results for 4 molecules from patent US20060148767A1, “Use of acyl salicylates as heat shock inducers” (priority 2001, published 2006).

The test system of one data set is human Hsp70 promoter. As to the kind of experiment: Heat shock induction in L 929 fibroblast cells, luciferase under human Hsp70 promoter. Format: cell-based, mouse. The conditions noted are these: for increase of heat shock response with respect to the control: 37° C.; for increase of heat shock response compared with the control: 40° C. The procedure:
Acetyl, propanoyl, n-butanoyl, n-octanoyl and n-decanoyl salicylates were tested for their ability to induce heat shock response in an in vitro system using L 929 fibroblast cells, in which the enzyme luciferase was cloned under the transcriptional control of the human Hsp70 promoter (Proc. Natl. Acad. Sci USA, 92, 7207-7211, 1995). The effects of the mentioned compounds on heat shock induction at different temperatures have been compared using Bimoclomol as reference compound (Table 1). As reported in Table 1, propanoyl salicylate and Bimoclomol at 37° C. increase the heat shock response by 33% with respect to the control, while n-butanoyl, n-octanoyl and n-decanoyl salicylates increase it up to 67%. […] (Nature Medicine, 3, 1150-1154, 1997).

The test system of a further data set is heat shock response. The conditions noted are these: cited from earlier work.
In another data set the test system is Hsp70. As to the kind of experiment: Heat shock response in NHEK cells, Hsp70 ELISA. The format is cell-based. The conditions noted are these: NHEK keratinocytes, 18 hours at 37° C., no heat shock. The procedure:
Acetyl, propanoyl, n-butanoyl, n-octanoyl and n-decanoyl salicylates, synthesized according to Example 1 or 2, were tested for their ability to induce heat shock response in an in vitro system using cells NHEK.
NHEK cells, grown at 37° C. to 75% confluence, were treated with different doses of propanoyl, n-butanoyl, n-octanoyl and n-decanoyl salicylates at a concentration range from 0 to 50 μM, using 50 mM sorbitol and heat shock at 42° C. as positive controls. After incubation for 18 hours at 37° C., Hsp70 levels were quantitatively determined on keratinocytes using the ELISA kit by StressGen.

The next data set has as its system UV-B induced erythema. The data set is described as follows: Prevention and repair of UV-B induced skin damage. The format is in vivo. The settings on record: guinea pigs, topical; untreated: erythema observed four hours after irradiation.
Data set [1] can be described thus: Stability as crystalline compound and in solution. The format is physicochemical. Here is the method:
The mixture was stirred at room temperature for 30 minutes and kept at 70° C. for 2 hours. The reaction mixture was poured into ice water and the precipitated product was filtered in vacuo, dried and recrystallized tree times from toluene or ethanol as solvent. […] The ^1H-NMR spectrum of the synthesized propanoyl salicylate is consistent with the proposed structure.

Data set [2] deals with heat shock transcription factor (HSF) (Homo sapiens, UniProt Q00613). The settings on record: 2-30 mM; cited from earlier work.
heat shock transcription factor (HSF), sequence (Q00613 whole entry): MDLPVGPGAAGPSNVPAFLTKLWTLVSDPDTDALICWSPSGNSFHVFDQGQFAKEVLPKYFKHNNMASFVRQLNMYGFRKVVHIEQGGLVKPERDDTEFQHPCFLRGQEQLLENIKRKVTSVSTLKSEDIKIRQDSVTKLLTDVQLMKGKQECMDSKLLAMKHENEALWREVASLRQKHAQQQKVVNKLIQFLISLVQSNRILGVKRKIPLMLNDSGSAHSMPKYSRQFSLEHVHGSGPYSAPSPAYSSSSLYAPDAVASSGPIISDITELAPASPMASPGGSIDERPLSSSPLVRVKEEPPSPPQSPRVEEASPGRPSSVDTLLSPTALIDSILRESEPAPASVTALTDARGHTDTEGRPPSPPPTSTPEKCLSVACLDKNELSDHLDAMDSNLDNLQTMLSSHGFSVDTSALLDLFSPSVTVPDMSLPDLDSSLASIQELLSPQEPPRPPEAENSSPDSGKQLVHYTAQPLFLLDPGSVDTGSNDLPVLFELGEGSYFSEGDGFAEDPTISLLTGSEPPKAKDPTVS
[3] abbreviates: temperature stress 37° C., control (None) 0.3.
Setting [4] is: temperature stress 40° C., control (None) 4.6.

Experimental for UV-B induced erythema: The effect of acyl-salicylates in the prevention and repair of UV-B induced skin damage was determined with an in vivo test, on female Hartley albino guinea pigs, using the propanoyl salicylate as model compound. The animals, that weighed about 400 g, were shaved with a commercial cream 24 h before irradiation. Propanoyl salicylate was applied 120 minutes before irradiation on the head distal area, on a 5 cm^2 rectangular area at a dose of about 2 mg/cm^2, the head proximal area serving as control site. A bank of four lamps providing a mean irradiation of about 1.2 mW/cm^2 at 310 nm was used as UV-B source. Following light exposure, sites were occluded with a cotton pad. The erythema following UV-B exposure was evaluated according to the following scale: not irradiated, 0, pale pink; slight erythema, 1, pink; moderate erythema, 2, intense pink; severe erythema, 3, intense pink, edema; ulcerated erythema, 4, intense pink, ulceration. One MED (minimal erythemal dose to obtain an erythema grade 1) for untreated animals corresponds to 5 minutes exposure at 400 mJ/cm^2. The protection effect was calculated as the ratio of protected skin MED to unprotected skin MED.

Take `OC(CO/N=C(\Cl)c1cccnc1)CN1CCCCC1` (stereo not shown) [Bimoclomol, reference compound]: in the data set on human Hsp70 promoter, the “increase of heat shock response with respect to the control” value was found to be 33% and the “increase of heat shock response compared with the control” value is listed as 20%. Further, the Luciferase activity with human Hsp70 promoter (setting [3]) is on record as 0.4 arbitrary units × 10^−5. In the data set on human Hsp70 promoter (setting [4]), the Luciferase activity was 5.5 arbitrary units × 10^−5. In addition, in the data set with heat shock response, the “temperature of maximum induction activity” value was 43 °C.

With `CCCCCCCC(=O)OC(=O)c1ccccc1O` [Octanoyl salicylate, n-octanoyl salicylate], the “increase of Hsp70 levels” value in the data set with Hsp70 (50 μM) is given as “up to 130%”. Moreover, the Luciferase activity in the data set on human Hsp70 promoter (setting [3]) is given as 0.5 arbitrary units × 10^−5; in the data set on human Hsp70 promoter (setting [4]) it was 6.3 arbitrary units × 10^−5.

As for `CCC(=O)OC(=O)c1ccccc1O` [Propanoyl salicylate], in the data set with Hsp70 (5 μM), the “increase of Hsp70 levels” value is on record as “up to 89%”. Also, in the data set with human Hsp70 promoter, the “increase of heat shock response with respect to the control” value was found to be 33% and the “increase of heat shock response compared with the control” value was determined as 107%. The molecule further showed a Luciferase activity in the data set with human Hsp70 promoter (setting [3]) of 0.4 arbitrary units × 10^−5. The Luciferase activity in the data set with human Hsp70 promoter (setting [4]) came out at 9.5 arbitrary units × 10^−5. Moreover, in the data set with UV-B induced erythema, the “time after UV-B irradiation at which erythema appeared in the treated area” value was in the range of 7 to 10 h. Further, the stability result in data set [1] was “compatible with its use in cosmetic and pharmaceutical formulations”.

Consider `O=C([O-])c1ccccc1O.[Na+]` [sodium salicylate], for which, in data set [2], the “heat shock gene transcription” value is listed as “does not induce heat shock gene transcription”.
